Laboratory results taken from patent US8952024B2, “Herbicidal pyrimidone derivatives” (E I du Pont de Nemours and Company, priority 2009, dated 2015).

Tests used:
Assay type in all cases: in vivo
rice (Oryza sativa) = experiment: Test B flooded paddy test; conditions: for Plant response rating, Flood, Rice: 250 g ai/ha, flooded paddy test, visual rating on 0 to 100 scale (0 no effect, 100 complete control) after 13 to 15 days; for Plant response rating, Rice: Flood (flooded paddy test), 13 to 15 days; for Rice plant response rating: Flood, 31 g ai/ha, scale 0 to 100 (0 no effect, 100 complete control)
Summary of the method: (§1)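 Greenhouse-held for 13 to 15 days, treated pots were compared visually with controls and scored 0–100 (0, no effect). Treatment had been made into paddy water kept at 3 cm above the soil, with plants at the 2-leaf stage.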

[1] = system: barnyardgrass (Echinochloa crus-galli); experiment: Test B flooded paddy test; conditions: for Plant response rating, Flood, Barnyardgrass: 250 g ai/ha, flooded paddy test, visual rating on 0 to 100 scale (0 no effect, 100 complete control) after 13 to 15 days; for Plant response rating, Barnyardgrass: Flood (flooded paddy test), 13 to 15 days; for Barnyardgrass plant response rating: Flood, 31 g ai/ha, scale 0 to 100 (0 no effect, 100 complete control)
Summary of the method: as §1

[2] = system: ducksalad (Heteranthera limosa); experiment: Test B flooded paddy test; conditions: for Plant response rating, Flood, Ducksalad: 250 g ai/ha, flooded paddy test, visual rating on 0 to 100 scale (0 no effect, 100 complete control) after 13 to 15 days; for Plant response rating, Ducksalad: Flood (flooded paddy test), 13 to 15 days; for Ducksalad plant response rating: Flood, 31 g ai/ha, scale 0 to 100 (0 no effect, 100 complete control)
Summary of the method: as §1

[3] = system: umbrella sedge (Cyperus difformis); experiment: Test B flooded paddy test; conditions: for Plant response rating, Flood, Sedge, Umbrella: 250 g ai/ha, flooded paddy test, visual rating on 0 to 100 scale (0 no effect, 100 complete control) after 13 to 15 days; for Plant response rating, Sedge, Umbrella: Flood (flooded paddy test), 13 to 15 days; for Sedge, Umbrella plant response rating: Flood, 31 g ai/ha, scale 0 to 100 (0 no effect, 100 complete control)
Summary of the method: as §1

[4] = system: morningglory (Ipomoea spp.); experiment: Test A pre-/postemergence plant response; conditions: for Morningglory plant response rating: visual injury, 0 to 100 scale (0 no effect, 100 complete control), approx. ten days
Summary of the method: (§2)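 Visual injury rating on a 0–100 scale (0 = no effect, 100 = complete control) was made versus untreated controls after about ten days in the greenhouse. Compounds, formulated in a non-phytotoxic solvent mix containing surfactant, were sprayed preemergence onto loam/sand soil and postemergence onto one- to two-leaf plants.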

[5] = system: giant foxtail (Setaria faberii); experiment: Test A pre-/postemergence plant response; conditions: for Foxtail, Giant plant response rating: visual injury, 0 to 100 scale (0 no effect, 100 complete control), approx. ten days
Summary of the method: as §2

corn (Zea mays) = experiment: Test A pre-/postemergence plant response; conditions: for Corn plant response rating: visual injury, 0 to 100 scale (0 no effect, 100 complete control), approx. ten days
Summary of the method: as §2

[6] = system: large crabgrass (Digitaria sanguinalis); experiment: Test A pre-/postemergence plant response; conditions: for Crabgrass, Large plant response rating: visual injury, 0 to 100 scale (0 no effect, 100 complete control), approx. ten days
Summary of the method: as §2

[7] = system: barnyardgrass (Echinochloa crus-galli); experiment: Test A pre-/postemergence plant response; conditions: for Barnyardgrass plant response rating: visual injury, 0 to 100 scale (0 no effect, 100 complete control), approx. ten days
Summary of the method: as §2

[8] = system: pigweed (Amaranthus retroflexus); experiment: Test A pre-/postemergence plant response; conditions: for Pigweed plant response rating: visual injury, 0 to 100 scale (0 no effect, 100 complete control), approx. ten days
Summary of the method: as §2

[9] = system: wheat (Triticum aestivum); experiment: Test A pre-/postemergence plant response; conditions: for Wheat plant response rating: visual injury, 0 to 100 scale (0 no effect, 100 complete control), approx. ten days
Summary of the method: as §2

[10] = system: velvetleaf (Abutilon theophrasti); experiment: Test A pre-/postemergence plant response; conditions: for Velvetleaf plant response rating: visual injury, 0 to 100 scale (0 no effect, 100 complete control), approx. ten days
Summary of the method: as §2

[11] = 62 g ai/ha, scale of 0 to 100 where 0 is no effect and 100 is complete control
[12] = 125 g ai/ha, scale 0 to 100, 0 is no effect, 100 is complete control
[13] = Postemergence, 125 g ai/ha, 0 to 100 scale where 0 is no effect and 100 is complete control
[14] = Preemergence, 125 g ai/ha, 0 to 100 scale, 0 = no effect, 100 = complete control
[15] = Preemergence, 500 g ai/ha, 0 to 100 scale, 0 = no effect, 100 = complete control

SMILES: O=C1CCCC(O)=C1C(=O)c1cnc(-c2ccccc2)n(C2CCCCCCC2)c1=O [Compound 215]
- Plant response rating, Flood, Rice (rice (Oryza sativa)): 15
- Plant response rating, Rice (rice (Oryza sativa); [11]): 0
- Plant response rating, Rice (rice (Oryza sativa); [12]): 0
- Rice plant response rating (rice (Oryza sativa)): 0
- Plant response rating, Flood, Barnyardgrass [1]: 40
- Plant response rating, Barnyardgrass [1, 11]: 0
- Plant response rating, Barnyardgrass [1, 12]: 30
- Barnyardgrass plant response rating [1]: 0
- Plant response rating, Flood, Ducksalad [2]: 85
- Plant response rating, Ducksalad [2, 11]: 75
- Plant response rating, Ducksalad [2, 12]: 85
- Ducksalad plant response rating [2]: 70
- Plant response rating, Flood, Sedge, Umbrella [3]: 90
- Plant response rating, Sedge, Umbrella [3, 11]: 0
- Plant response rating, Sedge, Umbrella [3, 12]: 75
- Sedge, Umbrella plant response rating [3]: 0
- Plant response rating, Morningglory [4, 13]: 100
- Morningglory plant response rating ([4]; Postemergence, 500 g ai/ha): 100
- Plant response rating, Morningglory [4, 14]: 0
- Plant response rating, Morningglory [4, 15]: 70
- Plant response rating, Foxtail, Giant [5, 13]: 40
- Foxtail, Giant plant response rating ([5]; Postemergence, 500 g ai/ha): 80
- Plant response rating, Foxtail, Giant [5, 14]: 10
- Plant response rating, Foxtail, Giant [5, 15]: 30
- Plant response rating, Corn (corn (Zea mays); [13]): 0
- Corn plant response rating (corn (Zea mays); Postemergence, 500 g ai/ha): 30
- Plant response rating, Corn (corn (Zea mays); [14]): 0
- Plant response rating, Corn (corn (Zea mays); [15]): 0
- Plant response rating, Crabgrass, Large [6, 13]: 40
- Crabgrass, Large plant response rating ([6]; Postemergence, 500 g ai/ha): 70
- Plant response rating, Crabgrass, Large [6, 14]: 0
- Plant response rating, Crabgrass, Large [6, 15]: 60
- Plant response rating, Barnyardgrass [7, 13]: 90
- Barnyardgrass plant response rating ([7]; Postemergence, 500 g ai/ha): 100
- Plant response rating, Barnyardgrass [7, 14]: 0
- Plant response rating, Barnyardgrass [7, 15]: 20
- Plant response rating, Pigweed [8, 13]: 90
- Pigweed plant response rating ([8]; Postemergence, 500 g ai/ha): 100
- Plant response rating, Pigweed [8, 14]: 20
- Plant response rating, Pigweed [8, 15]: 90
- Plant response rating, Wheat [9, 13]: 0
- Wheat plant response rating ([9]; Postemergence, 500 g ai/ha): 0
- Plant response rating, Wheat [9, 14]: 0
- Plant response rating, Wheat [9, 15]: 0
- Plant response rating, Velvetleaf [10, 13]: 100
- Velvetleaf plant response rating ([10]; Postemergence, 500 g ai/ha): 100
- Plant response rating, Velvetleaf [10, 14]: 0
- Plant response rating, Velvetleaf [10, 15]: 70

SMILES: CCCn1c(-c2cc(F)cc(F)c2)ncc(C(=O)C2=C(O)CC(C)(C)CC2=O)c1=O [Compound 224]
- Plant response rating, Flood, Rice (rice (Oryza sativa)): 60
- Plant response rating, Rice (rice (Oryza sativa); [11]): 0
- Plant response rating, Rice (rice (Oryza sativa); [12]): 0
- Rice plant response rating (rice (Oryza sativa)): 0
- Plant response rating, Flood, Barnyardgrass [1]: 30
- Plant response rating, Barnyardgrass [1, 11]: 0
- Plant response rating, Barnyardgrass [1, 12]: 0
- Barnyardgrass plant response rating [1]: 0
- Plant response rating, Flood, Ducksalad [2]: 75
- Plant response rating, Ducksalad [2, 11]: 0
- Plant response rating, Ducksalad [2, 12]: 0
- Ducksalad plant response rating [2]: 0
- Plant response rating, Flood, Sedge, Umbrella [3]: 75
- Plant response rating, Sedge, Umbrella [3, 11]: 0
- Plant response rating, Sedge, Umbrella [3, 12]: 0
- Sedge, Umbrella plant response rating [3]: 0
- Plant response rating, Morningglory [4, 13]: 100
- Morningglory plant response rating ([4]; Postemergence, 500 g ai/ha): 100
- Plant response rating, Morningglory [4, 15]: 30
- Plant response rating, Foxtail, Giant [5, 13]: 70
- Foxtail, Giant plant response rating ([5]; Postemergence, 500 g ai/ha): 100
- Plant response rating, Foxtail, Giant [5, 14]: 20
- Plant response rating, Foxtail, Giant [5, 15]: 70
- Plant response rating, Corn (corn (Zea mays); [13]): 10
- Corn plant response rating (corn (Zea mays); Postemergence, 500 g ai/ha): 50
- Plant response rating, Corn (corn (Zea mays); [14]): 20
- Plant response rating, Corn (corn (Zea mays); [15]): 20
- Plant response rating, Crabgrass, Large [6, 13]: 70
- Crabgrass, Large plant response rating ([6]; Postemergence, 500 g ai/ha): 100
- Plant response rating, Crabgrass, Large [6, 14]: 70
- Plant response rating, Crabgrass, Large [6, 15]: 100
- Plant response rating, Barnyardgrass [7, 13]: 90
- Barnyardgrass plant response rating ([7]; Postemergence, 500 g ai/ha): 90
- Plant response rating, Barnyardgrass [7, 14]: 0
- Plant response rating, Barnyardgrass [7, 15]: 90
- Plant response rating, Pigweed [8, 13]: 100
- Pigweed plant response rating ([8]; Postemergence, 500 g ai/ha): 100
- Plant response rating, Pigweed [8, 14]: 70
- Plant response rating, Pigweed [8, 15]: 100
- Plant response rating, Wheat [9, 13]: 0
- Wheat plant response rating ([9]; Postemergence, 500 g ai/ha): 60
- Plant response rating, Wheat [9, 14]: 0
- Plant response rating, Wheat [9, 15]: 30
- Plant response rating, Velvetleaf [10, 13]: 100
- Velvetleaf plant response rating ([10]; Postemergence, 500 g ai/ha): 100
- Plant response rating, Velvetleaf [10, 14]: 50
- Plant response rating, Velvetleaf [10, 15]: 80
